ChEMBL document CHEMBL1149389 (Bioorg Med Chem Lett, 2006)

Assays:
[1] = target: D(2) dopamine receptor (Homo sapiens, UniProt P14416); test: Binding affinity to human cloned dopamine D2 receptor
[2] = target: D(3) dopamine receptor (Homo sapiens, UniProt P35462); test: Binding affinity to human cloned dopamine D3 receptor
[3] = test system: Liver microsomes; test: Metabolic stability in human liver microsomes; assay type: ADME, Microsome
[4] = test system: Rattus norvegicus; test: Antagonism of agonist-induced huddling deficits in orally administered rat; assay type: functional; details: po
[5] = Permeability across Caco-2 cell membrane; assay type: ADME, cell-based; details: human
[6] = test system: Liver microsomes; test: Metabolic stability in rat liver microsomes; assay type: ADME, Microsome

Sequence of D(3) dopamine receptor (P35462 whole entry): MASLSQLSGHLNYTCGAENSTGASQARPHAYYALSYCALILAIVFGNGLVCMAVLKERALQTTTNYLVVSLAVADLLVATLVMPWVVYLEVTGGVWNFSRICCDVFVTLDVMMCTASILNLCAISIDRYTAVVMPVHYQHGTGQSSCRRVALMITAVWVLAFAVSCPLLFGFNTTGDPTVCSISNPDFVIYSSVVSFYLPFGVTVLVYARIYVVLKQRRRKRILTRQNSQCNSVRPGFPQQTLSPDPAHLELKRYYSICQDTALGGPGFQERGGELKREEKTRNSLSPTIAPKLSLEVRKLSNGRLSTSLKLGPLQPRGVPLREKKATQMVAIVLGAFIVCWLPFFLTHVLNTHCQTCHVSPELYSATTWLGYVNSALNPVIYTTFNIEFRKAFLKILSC
Sequence of D(2) dopamine receptor (P14416 whole entry): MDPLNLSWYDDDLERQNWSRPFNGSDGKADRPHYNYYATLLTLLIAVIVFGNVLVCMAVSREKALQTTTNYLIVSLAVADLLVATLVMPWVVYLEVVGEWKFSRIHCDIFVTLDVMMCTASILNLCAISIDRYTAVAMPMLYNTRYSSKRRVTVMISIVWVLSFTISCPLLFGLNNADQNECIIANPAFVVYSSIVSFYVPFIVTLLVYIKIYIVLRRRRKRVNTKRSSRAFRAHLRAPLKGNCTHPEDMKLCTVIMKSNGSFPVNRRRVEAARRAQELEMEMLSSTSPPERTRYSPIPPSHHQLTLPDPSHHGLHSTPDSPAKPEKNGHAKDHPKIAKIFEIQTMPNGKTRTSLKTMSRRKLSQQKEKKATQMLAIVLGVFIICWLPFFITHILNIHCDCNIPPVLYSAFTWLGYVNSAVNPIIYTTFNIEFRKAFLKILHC

Compound | Ki [1] [nM] | Ki [2] [nM] | further results
CC(C)(C)c1nc(N2CCN(CCCCn3ccc(N4CCC4)nc3=O)CC2)cc(C(F)(F)F)n1 | 82.1 | 4.4 | 
CC(C)(C)c1nc(N2CCN(CCCCn3ccc(C4CCCCC4)nc3=O)CC2)cc(C(F)(F)F)n1 | 302 |  | 
Cn1c(=O)ccn(CCCCN2CCN(c3cc(C(F)(F)F)nc(C(C)(C)C)n3)CC2)c1=O | 610 | 11.8 | 
Cc1cn(CCCCN2CCN(c3cc(C(F)(F)F)nc(C(C)(C)C)n3)CC2)c(=O)[nH]c1=O | 320 |  | Stability [3]: > 97%; ED50 [4]: 6.1 mg/kg; Papp [5]: 1.94 ×10⁻⁶ cm/s; Stability [6]: > 97%
CC(C)(C)c1nc(N2CCN(CCCCn3cc(C#N)c(=O)[nH]c3=O)CC2)cc(C(F)(F)F)n1 | 473 |  | 
CCOc1ccn(CCCCN2CCN(c3cc(C(F)(F)F)nc(C(C)(C)C)n3)CC2)c(=O)n1 | 290 |  | 
Cc1ccn(CCCCN2CCN(c3cc(C(F)(F)F)nc(C(C)(C)C)n3)CC2)c(=O)n1 | 307 |  | 
CC(C)(C)c1nc(N2CCN(CCCCn3cc(F)c(=O)[nH]c3=O)CC2)cc(C(F)(F)F)n1 | 602 |  | 
CC(C)(C)c1nc(N2CCN(CCCCn3cccnc3=O)CC2)cc(C(F)(F)F)n1 | 447 | 12.9 | 
CC(C)(C)c1nc(N2CCN(CCCCn3cc(C(F)(F)F)c(=O)[nH]c3=O)CC2)cc(C(F)(F)F)n1 | 646 |  | 
Cc1cn(CCCCN2CCN(c3cc(C(F)(F)F)nc(C(C)(C)C)n3)CC2)c(=O)n(C)c1=O | 356 | 10.4 | 
CC(C)(C)c1nc(N2CCN(CCCSc3nccc(O)n3)CC2)cc(C(F)(F)F)n1 [ABT-925] | 351 |  | 

The next lines start with results.

Ki [1] [nM] | Ki [2] [nM] | Compound | further results
168 |  | CC(C)(C)c1nc(N2CCN(CCCCn3ccc(-c4ccccc4)nc3=O)CC2)cc(C(F)(F)F)n1 | 
220 |  | CC(C)(C)c1nc(N2CCN(CCCCn3cc(Cl)c(=O)[nH]c3=O)CC2)cc(C(F)(F)F)n1 | 
89.4 | 3.4 | CC(C)(C)c1nc(N2CCN(CCCCn3ccc(N4CCCCC4)nc3=O)CC2)cc(C(F)(F)F)n1 | 
216 |  | CC(C)(C)c1ccn(CCCCN2CCN(c3cc(C(F)(F)F)nc(C(C)(C)C)n3)CC2)c(=O)n1 | 
155 | 3.7 | CC(C)(C)c1nc(N2CCN(CCCCn3ccc(C4CC4)nc3=O)CC2)cc(C(F)(F)F)n1 | 
273 |  | CC(C)(C)c1nc(N2CCN(CCCCn3ccc(C4CCC4)nc3=O)CC2)cc(C(F)(F)F)n1 | 
148 | 1.7 | CCc1cn(CCCCN2CCN(c3cc(C(F)(F)F)nc(C(C)(C)C)n3)CC2)c(=O)[nH]c1=O | 
196 |  | CC(C)(C)c1nc(N2CCN(CCCCn3ccc(=O)[nH]c3=O)CC2)cc(C(F)(F)F)n1 | 
